Measured values from article PMC9599826, “Selecting Multitarget Peptides for Alzheimer’s Disease” (Biomolecules, 2022).

Test system: human TLR4
Assay: TLR4 activation, HEK-Blue hTLR4 SEAP reporter cells
Format: cell-based
Conditions: 24 h, SEAP production
Protocol: The HEK-Blue hTLR4 cells were used for these experiments as previously described. Cells were cultured in complete growth medium: phenol red-free DMEM high glucose medium supplemented with 1 mM sodium pyruvate, 10% heat-inactivated FBS, 50 U/mL penicillin, 50 μg/mL streptomycin, 1X Glutamax, 100 μg/mL Normocin, and 1X HEK-Blue Selection. All stimulation assays were performed on cells that were passaged 3 to 15 times. Cells were carefully rinsed once with ice-cold PBS to remove residual FBS. Then, 2 mL of pre-warmed PBS was added, and dishes were incubated at 37 °C for 5 min to promote cell detachment. Cells were fully detached from plates with gentle tapping, collected, and centrifuged at 52× g for 5 min. […] In another set of experiments, we determined the effects of peptide candidates on the activation of hTLR4 by S100A9. […] Secreted alkaline phosphatase (SEAP) production was measured in each challenged well by transferring 20 μL of medium to a fresh 96-well plate containing 200 μL of Quanti-Blue detection medium. […] The Quanti-Blue plate was developed at 37 °C, 5% CO2, for 3 h followed by OD recordings at 630 nm using the Synergy2 microplate reader and Gen5 software. […]
Figure 6 TLR4 activation by S100A9 and effects of peptide candidates. (A) SEAP production was measured in cell medium following 24 h incubation with indicated concentrations of ligands. […]

EC50 (read-out: half maximal effective concentration (EC50) for TLR4 activation): 0.7 nM
Substance: S100A9: Recombinant human calcium binding protein S100A9 (C-terminus 8-His tag); known agonist of TLR4, positive control
concentration giving maximum receptor stimulation: 50 nM
